The values that follow come from patent US20040258695A1, “Transferrin binding peptides and uses thereof” (priority 2003, published 2004).

Assay [1] relates to TbpB N-lobe from H. somnus. Nature of the assay: bTf C-lobe overlapping peptide library probed with HRP-labelled H. somnus TbpB N-lobe. The class given is binding. The source says: (§1) Transferrin binding determinants from two bovine pathogens, M. haemolytica and H. somnus, as well as potential conserved transferrin binding determinants derived therefrom, were identified as described in Example 1 and shown in Table 4 below. Briefly, purified TbpB N-lobes from M. haemolytica and H. somnus were labelled with HRP and used to probe the bTf C-lobe overlapping peptide library. The peptides from the library that bound to the indicated TbpB N-lobe are listed in the column below the species name. The common overlap sequence from adjacent peptides probed with M. haemolytica (*), H. somnus (**) or both ( ) TbpB N-lobes are indicated for the indicated regions.

Assay [2] concerns TbpB N-lobe from M. haemolytica. In words: bTf C-lobe overlapping peptide library probed with HRP-labelled M. haemolytica TbpB N-lobe. In kind it is binding.
From the text: as §1

The target in a further assay is T1, HRP alone (UniProt P00433 31-338).
T1 construct: Negative control probe for library 2; also called horseradish peroxidase
T1 sequence: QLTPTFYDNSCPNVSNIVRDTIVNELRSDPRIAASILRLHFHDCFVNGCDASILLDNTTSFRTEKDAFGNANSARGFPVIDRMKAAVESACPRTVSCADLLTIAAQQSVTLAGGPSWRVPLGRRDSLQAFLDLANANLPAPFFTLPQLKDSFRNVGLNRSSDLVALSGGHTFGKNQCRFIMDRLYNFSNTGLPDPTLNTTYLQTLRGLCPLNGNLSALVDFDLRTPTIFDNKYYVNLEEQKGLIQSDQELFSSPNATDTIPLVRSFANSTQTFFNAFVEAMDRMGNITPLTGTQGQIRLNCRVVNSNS
In words: SPOT peptide library 2 probed with HRP alone, chemiluminescence.

For assay [3], the target named is T2, human transferrin (hTf), iron loaded (human, UniProt P02787 20-698).
T2 construct: Used as a labelled probe (beta-gal conjugate for library 1, HRP conjugate for library 2 and the solid-phase assay); also called β-gal-hTf; HRP conjugated hTf
In words: SPOT peptide library 2 of TbpB N-lobe probed with HRP-hTf, chemiluminescence.

The target in assay [4] is T2, human transferrin (hTf), iron loaded. In words: TbpB overlapping peptide library probed with labelled hTf as in Example 1.

T2 sequence (P02787 20-698 limits assumed): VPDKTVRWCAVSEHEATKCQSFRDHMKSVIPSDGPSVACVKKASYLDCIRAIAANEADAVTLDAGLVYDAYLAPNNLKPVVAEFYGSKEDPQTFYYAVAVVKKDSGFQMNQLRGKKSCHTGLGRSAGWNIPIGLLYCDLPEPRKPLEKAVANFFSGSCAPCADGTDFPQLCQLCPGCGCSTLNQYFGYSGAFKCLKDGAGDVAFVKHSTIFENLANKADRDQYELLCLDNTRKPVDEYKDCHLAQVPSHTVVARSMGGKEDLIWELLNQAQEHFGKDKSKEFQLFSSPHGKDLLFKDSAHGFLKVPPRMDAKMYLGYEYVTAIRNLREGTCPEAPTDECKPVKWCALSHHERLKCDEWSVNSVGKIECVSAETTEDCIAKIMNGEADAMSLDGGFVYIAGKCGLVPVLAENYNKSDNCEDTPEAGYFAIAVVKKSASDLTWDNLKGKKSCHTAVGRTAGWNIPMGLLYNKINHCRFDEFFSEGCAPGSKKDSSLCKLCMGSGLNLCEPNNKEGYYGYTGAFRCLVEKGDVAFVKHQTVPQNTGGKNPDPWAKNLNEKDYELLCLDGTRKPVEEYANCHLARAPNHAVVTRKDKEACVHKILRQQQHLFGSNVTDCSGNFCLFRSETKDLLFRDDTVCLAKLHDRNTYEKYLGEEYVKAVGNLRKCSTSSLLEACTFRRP

As to “ANINWNNLKDKKSCH (TbpB N-lobes of Bovine Pathgens) [Peptide 5, bTf C-lobe library peptide]”, the “binding to H. somnus TbpB N-lobe (bound peptide listed; None = did not bind)” value in assay [1] is “ANINWNNLKDKKSCH”. Further, in assay [2], the “binding to M. haemolytica TbpB N-lobe (bound peptide listed; None = did not bind)” value is recorded as “ANINWNNLKDKKSCH”.

As to “NSNERYYGYTGAFRC (TbpB N-lobes of Bovine Pathgens) [Peptide 6, bTf C-lobe library peptide]”, in assay [1], the “binding to H. somnus TbpB N-lobe (bound peptide listed; None = did not bind)” value is given as “NSNERYYGYTGAFRC”. Moreover, the “binding to M. haemolytica TbpB N-lobe (bound peptide listed; None = did not bind)” value in assay [2] is on record as “None”.

As for “MVKWCAIGHQERTKC (TbpB N-lobes of Bovine Pathgens) [Peptide 1, bTf C-lobe library peptide]”, the “binding to H. somnus TbpB N-lobe (bound peptide listed; None = did not bind)” value in assay [1] is recorded as “MVKWCAIGHQERTKC”. Further, in assay [2], the “binding to M. haemolytica TbpB N-lobe (bound peptide listed; None = did not bind)” value was “MVKWCAIGHQERTKC”.

For “CAIGHQERTKCDRWS (TbpB N-lobes of Bovine Pathgens) [Peptide 2, bTf C-lobe library peptide]”, in assay [1], the “binding to H. somnus TbpB N-lobe (bound peptide listed; None = did not bind)” value is listed as “CAIGHQERTKCDRWS”. The “binding to M. haemolytica TbpB N-lobe (bound peptide listed; None = did not bind)” value in assay [2] was “CAIGHQERTKCDRWS”.

As for “NNNEAWAKNLKKENF (TbpB N-lobes of Bovine Pathgens) [Peptide 9, bTf C-lobe library peptide]”, the “binding to H. somnus TbpB N-lobe (bound peptide listed; None = did not bind)” value in assay [1] is “NNNEAWAKNLKKENF”. Moreover, the “binding to M. haemolytica TbpB N-lobe (bound peptide listed; None = did not bind)” value in assay [2] is given as “NNNEAWAKNLKKENF”.

As for “HQERTKCDRWSGFSG (TbpB N-lobes of Bovine Pathgens) [Peptide 3, bTf C-lobe library peptide]”, the “binding to H. somnus TbpB N-lobe (bound peptide listed; None = did not bind)” value in assay [1] was “HQERTKCDRWSGFSG”. Moreover, the “binding to M. haemolytica TbpB N-lobe (bound peptide listed; None = did not bind)” value in assay [2] is “HQERTKCDRWSGFSG”.

For the molecule “RAMTNLRQCSTSKLL (TbpB N-lobes of Bovine Pathgens) [Peptide 18, bTf C-lobe library peptide]”, the “binding to H. somnus TbpB N-lobe (bound peptide listed; None = did not bind)” value in assay [1] was “RAMTNLRQCSTSKLL”. The “binding to M. haemolytica TbpB N-lobe (bound peptide listed; None = did not bind)” value in assay [2] is recorded as “RAMTNLRQCSTSKLL”.

As to “CHLARGPNHAVVSRK (TbpB N-lobes of Bovine Pathgens) [Peptide 12, bTf C-lobe library peptide]”, the “binding to H. somnus TbpB N-lobe (bound peptide listed; None = did not bind)” value in assay [1] was “CHLARGPNHAVVSRK”. The “binding to M. haemolytica TbpB N-lobe (bound peptide listed; None = did not bind)” value in assay [2] is recorded as “CHLARGPNHAVVSRK”.

Consider “NLKKENFEVLCKDGT (TbpB N-lobes of Bovine Pathgens) [Peptide 11, bTf C-lobe library peptide]”, for which the “binding to H. somnus TbpB N-lobe (bound peptide listed; None = did not bind)” value in assay [1] is recorded as “None”. Besides, in assay [2], the “binding to M. haemolytica TbpB N-lobe (bound peptide listed; None = did not bind)” value is given as “NLKKENFEVLCKDGT”.

Consider “NTDGNNNEAWALK (NTDGNNNEAWAKNLK; TbpB N-lobes of Bovine Pathgens) [Peptide 8, bTf C-lobe library peptide]”, for which the “binding to H. somnus TbpB N-lobe (bound peptide listed; None = did not bind)” value in assay [1] is given as “NTDGNNNEAWALK”. The “binding to M. haemolytica TbpB N-lobe (bound peptide listed; None = did not bind)” value in assay [2] was “None”.

For the molecule “RGPNHAVVSRKDKAT (TbpB N-lobes of Bovine Pathgens) [Peptide 13, bTf C-lobe library peptide]”, in assay [1], the “binding to H. somnus TbpB N-lobe (bound peptide listed; None = did not bind)” value is recorded as “RGPNHAVVSRKDKAT”. The “binding to M. haemolytica TbpB N-lobe (bound peptide listed; None = did not bind)” value in assay [2] is listed as “RGPNHAVVSRKDKAT”.

Consider “KCLASIAKKTYDSYL (TbpB N-lobes of Bovine Pathgens) [Peptide 17, bTf C-lobe library peptide]”, for which the “binding to H. somnus TbpB N-lobe (bound peptide listed; None = did not bind)” value in assay [1] was “KCLASIAKKTYDSYL”. For the same molecule, the “binding to M. haemolytica TbpB N-lobe (bound peptide listed; None = did not bind)” value in assay [2] is recorded as “KCLASIAKKTYDSYL”.

For the molecule “RYYGYTGAFRCLVEK (TbpB N-lobes of Bovine Pathgens) [Peptide 7, bTf C-lobe library peptide]”, the “binding to H. somnus TbpB N-lobe (bound peptide listed; None = did not bind)” value in assay [1] is reported as “RYYGYTGAFRCLVEK”. Moreover, in assay [2], the “binding to M. haemolytica TbpB N-lobe (bound peptide listed; None = did not bind)” value was “None”.

As for “RDDTKCLASIAKKTY (TbpB N-lobes of Bovine Pathgens) [Peptide 16, bTf C-lobe library peptide]”, the “binding to H. somnus TbpB N-lobe (bound peptide listed; None = did not bind)” value in assay [1] is listed as “RDDTKCLASIAKKTY”. Moreover, in assay [2], the “binding to M. haemolytica TbpB N-lobe (bound peptide listed; None = did not bind)” value was “RDDTKCLASIAKKTY”.

In the case of “HAVVSRKDKATCVEK (TbpB N-lobes of Bovine Pathgens) [Peptide 14, bTf C-lobe library peptide]”, the “binding to H. somnus TbpB N-lobe (bound peptide listed; None = did not bind)” value in assay [1] was “HAVVSRKDKATCVEK”. Further, the “binding to M. haemolytica TbpB N-lobe (bound peptide listed; None = did not bind)” value in assay [2] is listed as “HAVVSRKDKATCVEK”.

As to “AWAKNLKKENFEVLC (TbpB N-lobes of Bovine Pathgens) [Peptide 10, bTf C-lobe library peptide]”, the “binding to H. somnus TbpB N-lobe (bound peptide listed; None = did not bind)” value in assay [1] was “None”. In addition, the “binding to M. haemolytica TbpB N-lobe (bound peptide listed; None = did not bind)” value in assay [2] is reported as “AWAKNLKKENFEVLC”.

For “KTSDANINWNNLKDK (TbpB N-lobes of Bovine Pathgens) [Peptide 4, bTf C-lobe library peptide]”, the “binding to M. haemolytica TbpB N-lobe (bound peptide listed; None = did not bind)” value in assay [2] is “KTSDANINWNNLKDK”.

For the molecule “SRKDKATCVEKILNK (TbpB N-lobes of Bovine Pathgens) [Peptide 15, bTf C-lobe library peptide]”, the “binding to H. somnus TbpB N-lobe (bound peptide listed; None = did not bind)” value in assay [1] was “SRKDKATCVEKILNK”. Besides, the “binding to M. haemolytica TbpB N-lobe (bound peptide listed; None = did not bind)” value in assay [2] is “None”.

B1: M. catarrhalis TbpB N-lobe peptide amgygmalskinlhn (peptide)
peptide: AMGYGMALSKINLHN
notes: SPOT peptide immobilised on cellulose membrane
B1: the binding result is recorded as “no binding” in the assay with HRP alone and “binds” in assay [3].

Consider AALNLFDRNKPSLLN (library peptide) [H. influenzae TbpB peptide AALNLFDRNKPSLLN], for which the binding result in assay [4] is reported as “binds”.

Turning to YKGTWSFITAAENGK (library peptide) [H. influenzae TbpB peptide YKGTWSFITAAENGK], the binding result in assay [4] was “binds”.

B2: M. catarrhalis TbpB N-lobe peptide avkykghwdfmtdva (peptide)
peptide: AVKYKGHWDFMTDVA
notes: as for B1
With B2, the binding result in the assay with HRP alone was “no binding”; in assay [3] it was “binds”.

B3: M. catarrhalis TbpB N-lobe peptide kkltgklfsnlqdrh (peptide)
peptide: KKLTGKLFSNLQDRH
notes: as for B1
Consider B3, for which the results for the binding result (with HRP alone; in assay [3]) were “no binding” and “binds”, respectively.

B4: M. catarrhalis TbpB N-lobe peptide dfmtdvanrrnrfse (peptide)
peptide: DFMTDVANRRNRFSE
notes: as for B1
B4: the binding result is “no binding” in the assay with HRP alone and “binds” in assay [3].

For TDANKSQNRTHKLYD (library peptide) [H. influenzae TbpB peptide TDANKSQNRTHKLYD], the binding result in assay [4] is reported as “binds”.

B5: M. catarrhalis TbpB N-lobe peptide ydidanihgnrfrgs (peptide)
peptide: YDIDANIHGNRFRGS
notes: as for B1
Take B5: the binding result in the assay with HRP alone was “no binding”; in assay [3], “binds”.

B6: M. catarrhalis TbpB N-lobe peptide wnlgpvggvfyngtt (peptide)
peptide: WNLGPVGGVFYNGTT
notes: as for B1
Consider B6, for which the binding result with HRP alone is on record as “no binding”; in assay [3], “binds”.

GKFLAHDKKVLGVFS (library peptide) [H. influenzae TbpB peptide GKFLAHDKKVLGVFS]: the binding result in assay [4] is on record as “binds”.

B7: M. catarrhalis TbpB N-lobe peptide kghwdfmtdvanrrn (peptide)
peptide: KGHWDFMTDVANRRN
notes: as for B1
Regarding B7, the binding result in the assay with HRP alone is listed as “no binding”; in assay [3] it was “binds”.

B8: M. catarrhalis TbpB N-lobe peptide nfkekkltgklfsnl (peptide)
peptide: NFKEKKLTGKLFSNL
notes: as for B1
Take B8: the binding result with HRP alone was “no binding”; in assay [3], “binds”.

Take RNSGGGQAYSRRSAT (library peptide) [H. influenzae TbpB peptide RNSGGGQAYSRRSAT]: the binding result in assay [4] is listed as “binds”.

For the molecule IQSWSLRDLPNKKFY (library peptide) [H. influenzae TbpB peptide IQSWSLRDLPNKKFY], in assay [4], the binding result is “binds”.

B9: M. catarrhalis TbpB N-lobe peptide fsevkensqagwyyg (peptide)
peptide: FSEVKENSQAGWYYG
notes: as for B1
For the molecule B9, the binding result with HRP alone was “no binding”; in assay [3] it was “binds”.

B10: M. catarrhalis TbpB N-lobe peptide gklfsnlqdrhkgnv (peptide)
peptide: GKLFSNLQDRHKGNV
notes: as for B1
On to B10, for which the values for the binding result (with HRP alone; in assay [3]) were “no binding” and “binds”, respectively.

B11: M. catarrhalis TbpB N-lobe peptide kterydidanihgnr (peptide)
peptide: KTERYDIDANIHGNR
notes: as for B1
For B11, the figures for the binding result (with HRP alone; in assay [3]) were “no binding” and “binds”, respectively.

APNSNENRHGQKYVY (library peptide) [H. influenzae TbpB peptide APNSNENRHGQKYVY]: in assay [4], the binding result is recorded as “binds”.

For the molecule SALPVGGVATYKGTW (library peptide) [H. influenzae TbpB peptide SALPVGGVATYKGTW], in assay [4], the binding result is “binds”.
